{
  "source": "patent US8349875B2",
  "about": "“Dual-acting antihypertensive agents” (Theravance, Inc., priority 2007, dated 2013)",
  "molecular_target": "T1, human AT1 receptor (Homo sapiens, UniProt P30556)",
  "T1 construct": "expressed in transfected cells; host or cells: CHO-K1",
  "T1 sequence (P30556 1-359)": "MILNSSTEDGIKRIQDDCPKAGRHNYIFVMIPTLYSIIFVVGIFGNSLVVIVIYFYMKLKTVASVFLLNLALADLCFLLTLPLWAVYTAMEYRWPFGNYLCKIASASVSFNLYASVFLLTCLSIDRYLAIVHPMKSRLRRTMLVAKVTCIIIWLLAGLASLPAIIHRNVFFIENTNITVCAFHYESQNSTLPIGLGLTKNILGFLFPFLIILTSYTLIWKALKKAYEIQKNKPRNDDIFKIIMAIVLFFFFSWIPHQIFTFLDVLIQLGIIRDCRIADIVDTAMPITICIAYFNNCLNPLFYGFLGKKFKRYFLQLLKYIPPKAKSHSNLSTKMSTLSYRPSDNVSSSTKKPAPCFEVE",
  "experiment": "AT1 radioligand binding assay (Assay 1)",
  "conditions": "displacement of [Eu]AngII 2 nM, membranes of CHO-K1 cells expressing human AT1 receptor",
  "method": "These in vitro assays were used to assess the ability of test compounds to bind to the AT1 and the AT2 receptors.\nChinese hamster ovary (CHO-K1) derived cell lines stably expressing the cloned human AT1 or AT2 receptors, respectively, were grown in HAM's-F12 medium supplemented with 10% fetal bovine serum, 10 μg/ml penicillin/streptomycin, and 500 μg/ml geneticin in a 5% CO2 humidified incubator at 37° C. AT2 receptor expressing cells were grown in the additional presence of 100 nM PD123,319 (AT2 antagonist). When cultures reached 80-95% confluence, the cells were washed thoroughly in PBS and lifted with 5 mM EDTA. […]\nBinding assays were performed in 96-well Acrowell filter plates (Pall Inc., cat. #5020) in a total assay volume of 100 μL, with 0.2 μg membrane protein for membranes containing the human AT1 receptor, or 2 μg membrane protein for membranes containing the human AT2 receptor in assay buffer (50 mM Tris/HCl pH 7.5 at 20° C., 5 mM MgCl2, 25 μM EDTA, 0.025% BSA). […] Non-specific binding was determined in the presence of 10 μM unlabeled angiotensin-II. […] Filter-bound [Eu]AngII was quantitated immediately on a Fusion plate reader (PerkinElmer) using Time Resolved Fluorescence (TRF). Binding data were analyzed by nonlinear regression analysis with the GraphPad Prism Software package (GraphPad Software, Inc., San Diego, Calif.) using the 3-parameter model for one-site competition. […]",
  "data": [
    {"substance": "4′-2-Butyl-4-chloro-5-[((S)-2-mercaptomethyl-4-methylpentanoylamino)methyl]imidazol-1-ylmethylbiphenyl-2-carboxylic Acid [Example 1]", "values": [
      {"measurement": "pKi at the AT1 receptor", "value": "greater than 7.0"}
    ]}
  ]
}
